Values joined by “and” are separate entries in the source; they are usually repeats but may differ in a detail not shown here. Identical values can stand only once. Values belong to the molecule of their own block, whether it stands above or below them.
Legend:
[1] = molecular target: T1, CaMKIIα derived from rat (Rattus norvegicus, UniProt P11275); assay: Examination of CaMKII inhibitory activity (1), phosphorylation of Autocamtide-2; type: biochemical
T1 construct: purchased Santa Cruz, Inc
Experimental: Test substances were dissolved in DMSO and diluted to various concentrations with a buffer solution (50 mM Tris-HCl: pH 7.5, 10 mM MgCl2, 1 mM Dithiothreitol (DTT)) (all of them are available from Nacalai Tesque, Inc.) for CaMKII reaction. CaMKIIα (final concentration 0.75 μg/ml) (Santa Cruz, Inc.) derived from rat was mixed with Autocamtide-2® (40 μM) (CALBIOCHEM Company) dissolved in CaMKII reaction buffer solution in the presence of the test substance and with CaMKII activation buffer solution (1 mMCaCl2, 1 μM calmodulin) (Nacalai Tesque, Inc.) and the reaction was started by further adding ATP (50 μM) (Nacalai Tesque, Inc.). The reaction was performed at 30° C. for five minutes and then SDS-PAGE sample buffer solution was added and the reaction was terminated by boiling for five minutes. Proteins in the reaction mixture were separated by 15% SDS-PAGE and blotted onto a PVDF membrane. Phosphorus taken in by Autocamtide-2 was reacted with an anti-phosphorylated serine/threonine antibody (Santa Cruz, Inc.) and quantified by ECL system (Amersham, Inc.) and NIH Image (downloadable from http://rsb.info.nih.gov/nih-image/).

[2] = system: adjuvant-induced arthritis rats; assay: Adjuvant-induced arthritis, therapeutic and prophylactic model; type: in vivo, rat; conditions: Compound (I) 2.5 to 80 mg/kg
Experimental: The adjuvant-induced arthritis model is a representative chronic inflammation model caused in rats, and it is widely used for pharmacological evaluation of antiinflammatory drugs and antirheumatic drugs. Accordingly, effects of Compound (I) and Compound (II) were examined in both therapeutic and prophylactic model. In the therapeutic model, the difference of the volume of a hind leg before and after the dosed period was calculated to examine edema suppression effect by the drug administration and the change of edema volume was examined. In the prophylactic model, the volume of a hind paw was measured over time during the dosed period and the effect of the drug for a long term period was examined. Although the hind paw volume or the edema volume was used as the index of efficacy evaluation, the edema volume means the increment from the normal volume of the hind paw which was not sensitized with the adjuvant, and therefore, the both indices can be used as approximately the same meaning.
A liquid paraffin suspension (1 mg/200 μl) of Mycobacterium butyricum (adjuvant) was subcutaneously injected at the tarsal part of the right hind paw of SD or Lewis rats (both male, six-week old) to cause arthritis. In the therapeutic model, 0.5% methylcellulose suspension of Compound (I) or Compound (II) which was prepared so that the dose was 1 ml per 100 g body weight was orally administered once a day for consecutive five days from the 17th day after the injection of the adjuvant. An indomethacin suspension prepared in the similar way was administered as the positive control. The volume of the hind paws was measured respectively for the right and the left by water replacement method just before the administration and in five hours after the last administration and the difference in the values just before the administration and in five hours after the last administration was calculated and assumed as the change in the edema volume. In the prophylatic model, the compounds were administered once a day for consecutive 21 days after the day when the adjuvant was injected. The volume of the right and left hind paws was measured by water replacement method every other day. In the prophylactic model of Compound (II), a suspension of D-penicillamine, an antirheumatic drug, was administered in the same way as a control.

[3] = system: adjuvant arthritis rats; conditions: reported in Patent Documents 3, 4 and Non-Patent Documents 3 to 5; cited from earlier work
[4] = system: mouse type III allergy reaction; conditions: reported in Patent Document 4; cited from earlier work
[5] = system: experimental allergic encephalomyelitis mice; assay: Experimental allergic encephalomyelitis, Compound (I); type: in vivo
Source text: The severity of the condition was indicated as a score (disease score) according to the following criteria.
0.5: Slight paralysis of tail
2: Light paralysis of hind paw
3: Medium to intense paralysis of hind paw or light forelimb paralysis
4: Complete paralysis of hind paw or medium to intense paralysis of forelimb
5: Paralysis of four limbs or toward death period
In the prednisolone administered group as a positive control, prednisolone was suspended in 0.5% methylcellulose solution to prepare a liquid of 0.3 mg/ml for administration and 0.1 ml per 10 g mouse weight was orally administered. In a control group, only 0.5% methylcellulose solution was […] administered. The administration was started on the sensitization day and carried out once a day for consecutive 40 days.

[6] = system: adjuvant-induced arthritis rats; assay: Combination effect on adjuvant-induced arthritis (Example 19); type: in vivo, rat; conditions: only methotrexate 0.060 mg/kg oral once a day 17 days
Experimental: Combination effect for rat adjuvant-induced arthritis was examined in the same manner as in Example 17.
The volume of the left hind paw was measured by water replacement method just before the administration and after the last administration, and AUC (the area under the curve formed by plotting the difference of the value at the time of grouping from the value of each time point during the administration period against the time) of the increased volume of the left hind paw was determined. Joint destruction of the right hind paw (injected paw) and the left hind paw (non-injection paw) can be measured by X-ray and this can be also used as the index to evaluate the combination effect.

[7] = system: adjuvant-induced arthritis rats; assay: Combination effect on adjuvant-induced arthritis, joint destruction score by soft X-ray (Example 20); type: in vivo, rat; conditions: Compound (I) 40 mg/kg and/or methotrexate 0.06 mg/kg, maximum 12
Experimental: Combination effect for adjuvant-induced arthritic rats was examined in the same manner as in Example 17.
Euthanasia was carried out for all the rats by aspiration of high concentration carbon dioxide after the last administration. Both the hind paws were cut off at the middle point of […]. Both the hind paws were fixed with 10% neutral buffered formalin liquid. […] The degree of joint destruction was recorded with a score. Observed sites were three points of the tibia, calcaneum and tarsal bone, and the possible maximum score was 12.
1: Minimum destruction of joints and bones and new formation of cartilages
2: Mild destruction of joints and bones and new formation and light ossification of cartilages
3: Moderate destruction of joints and bones and ossification
4: Severe destruction and deformation of joints and bones and intense ossification

T1 sequence (P11275 whole entry): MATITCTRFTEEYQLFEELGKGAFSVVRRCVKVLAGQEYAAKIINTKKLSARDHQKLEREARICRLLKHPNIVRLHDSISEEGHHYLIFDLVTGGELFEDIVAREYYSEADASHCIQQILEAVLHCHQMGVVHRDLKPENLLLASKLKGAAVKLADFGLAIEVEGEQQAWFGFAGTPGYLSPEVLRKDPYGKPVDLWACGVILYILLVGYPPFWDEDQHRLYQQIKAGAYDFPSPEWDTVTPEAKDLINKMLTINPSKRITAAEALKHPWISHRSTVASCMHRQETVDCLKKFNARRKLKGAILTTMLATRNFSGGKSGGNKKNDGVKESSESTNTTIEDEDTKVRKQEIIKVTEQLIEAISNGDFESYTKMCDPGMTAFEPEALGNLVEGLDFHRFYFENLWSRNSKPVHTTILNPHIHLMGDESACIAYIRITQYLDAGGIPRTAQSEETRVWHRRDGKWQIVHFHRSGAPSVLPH

Compound: C[C@]12C=CC(=O)C=C1CC[C@@H]1[C@@H]2[C@@H](O)C[C@@]2(C)[C@H]1CC[C@]2(O)C(=O)CO [Prednisolone, prednisolone, reference compound]
weight gain (natural accruement of weight by growth) ([5]; Compound (I) 20 to 80 mg/kg, prednisolone 3 mg/kg, oral once a day 40 days, FIG. 14): strongly suppressed natural accruement of weight by growth | Death Rate ([5]; Dose 3 mg/kg oral once a day 40 days): 0/10 | Onset Rate ([5]; Dose 3 mg/kg oral once a day 40 days, 3 mg/kg): 2 of 10 and 2/10

Compound: CN(Cc1cnc2nc(N)nc(N)c2n1)c1ccc(C(=O)N[C@@H](CCC(=O)O)C(=O)O)cc1 [methotrexate, reference compound]
increased volume and onset ratio of left hind paw [6]: onset suppressing effect and edema suppressing effect | joint destruction score of the left hind paw, representative individual which showed an average score in the group ([7]; control score 3): 2 | joint destruction score of the right hind paw, representative individual which showed an average score in the group ([7]; control score 10): 9

More lines, main results first:

Inhibition rate (%) ([1]; Concentration 0.1 μm): 45% | Inhibition rate (%) ([1]; Concentration 1 μm): 62% | Inhibition rate (%) ([1]; Concentration 10 μm): 92%
Compound: CNc1nc(C(C)c2ccc(-c3ccccc3)c(F)c2)cs1 (stereo not shown) [Compound (II), 4-[1-(2-fluorobiphenyl-4-yl)ethyl]-2-(methylamino)thiazole]
hind paw volume / edema volume ([2]; prophylactic model, oral once a day for 21 days, Compound (II) 50 mg/kg, FIGS. 8 and 9): remarkable edema suppressing effect | change of edema volume of hind paw ([2]; therapeutic model, oral once a day for five days from 17th day, Compound (II) 10 to 50 mg/kg, FIGS. 6 and 7): remarkable edema suppressing effect | effects on adjuvant arthritis rats [3]: anti-arthritis effects | edema in mouse type III allergy reaction tests [4]: inhibitory effects on edema

Inhibition rate (%) ([1]; Concentration 0.1 μm): 13% | Inhibition rate (%) ([1]; Concentration 1 μm): 42% | Inhibition rate (%) ([1]; Concentration 10 μm): 71%
Compound: CC(c1ccc(-c2ccccc2)c(F)c1)c1cc(/N=C(/N)N(C)C)on1.Cl (stereo not shown) [Compound (Ib), N′-{3-[1-(2-fluorobiphenyl-4-yl)-ethyl]-isoxazol-5-yl}-N,N-dimethyl-guanidine hydrochloride]

Inhibition rate (%) ([1]; Concentration 0.1 μm): 11% | Inhibition rate (%) ([1]; Concentration 1 μm): 36% | Inhibition rate (%) ([1]; Concentration 10 μm): 68%
Compound: CCN/C(N)=N/c1cc(C(C)c2ccc(-c3ccccc3)c(F)c2)no1.Cl (stereo not shown) [Compound (Ic), N-ethyl-N′-{3-[1-(2-fluorobiphenyl-4-yl)-ethyl]-isoxazol-5-yl}-guanidine hydrochloride]

Reference: patent US20080255121A1, “Combination Drug for Treating Autoimmune Disease” (DAINIPPON SUMITOMO PHARMA CO., LTD., priority 2004, published 2008)
